Data as given in patent publication US11826414B2, “Measurement of afucosylated IgG Fc glycans and related vaccination methods” (priority 2017, dated 2023).
Where two headings read alike, the source gives them in different places.

Assays:
[1] = system: dengue 2; type: cell-based, dengue virus; conditions: for Inhibition of dengue 2 infection (ADE): FcγRIIa+FcγRIIIa+ monocytes, pre-incubation with inhibitor
[2] = system: dengue 2; type: cell-based, dengue virus; conditions: FcγRIIa+FcγRIIIa− U937 cells treated with PMA/ionomycin
[3] = system: Zika virus (ZIKV); type: cell-based; conditions: DC-SIGN U937 cells, no antibodies present
[4] = system: H1N1 influenza virus (IAV); type: cell-based; conditions: DC-SIGN U937 cells, no antibodies present
[5] = system: H3N2 influenza virus (IAV); type: cell-based; conditions: DC-SIGN U937 cells, no antibodies present
[6] = system: FcγRIIa^+FcγRIIIa^+ monocytes; conditions: at concentrations tested

| Compound | Inhibition of dengue infection ([1]; 5 μM peptide, all MOIs tested) | Inhibition of dengue 2 infection (ADE) [1] | Inhibition of dengue 2 replication, time of treatment ([1]; treatment of cells up to 2 hours following infection) | Inhibition of enhanced infection after PMA/ionomycin treatment [2] | Inhibition of infection [3] | Inhibition of infection [4] | Inhibition of infection [5] | Cell viability [6] | Inhibition of dengue 2 infection (ADE) ([1]; listed as PRT) |
| --- | --- | --- | --- | --- | --- | --- | --- | --- | --- |
| 11R-VIVIT | > 70% | inhibited dengue 2 infection in a concentration-dependent manner | inhibited dengue 2 replication | could be inhibited | did not inhibit | did not inhibit | did not inhibit | unaffected | – |
| Cc1cccc(Nc2nc(N[C@@H]3CCCC[C@@H]3N)ncc2C(N)=O)c1 [PRT318] | – | inhibited in FcγRIIa^+FcγRIIIa^+ monocytes in a concentration-dependent manner | – | – | – | – | – | – | inhibited dengue 2 infection in FcγRIIa+FcγRIIIa+ monocytes in a concentration-dependent manner |
